Strand notation (5' to 3'): a small letter for the sugar, then the base; units joined by * are phosphorothioate-linked, units joined directly phosphodiester-linked; [ ] holds rarer units or linkages, { } end groups; capitals alone tell only the bases. e = 2'-O-(2-methoxyethyl) (MOE); k = constrained ethyl (cEt); [5mC] = 5-methylcytosine; d = 2'-deoxy (DNA)
system: human PKK mRNA; assay: Antisense inhibition of human PKK mRNA in HepaRG cells, 1,000 nM, MOE/deoxy/cEt oligonucleotides (Example 3); type: cell-based; settings: HepaRG cells, 1,000 nM antisense oligonucleotide, Table 29
How it was run: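 Readout is percent PKK mRNA reduction against untreated controls, by real-time PCR (RTS3454) adjusted for total RNA via RIBOGREEN. Oligonucleotides, phosphorothioate gapmers of 16 nucleosides with cEt, MOE and deoxy sugars, were delivered at 1,000 nM by electroporation to 20,000 HepaRG cells/well for roughly 24 h.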

Substance | % inhibition [%]
548550 (antisense e[5mC]*e[5mC]*kG*dG*d[5mC]*d[5mC]*dT*dG*dG*dA*dT*dA*d[5mC]*kA*kG*e[5mC]) [compound 548550] | 0
548595 (eG*eG*kA*dT*dG*dA*dG*dA*dT*dG*d[5mC]*dA*dT*k[5mC]*k[5mC]*eA; antisense) [compound 548595] | 8
548602 (eG*eG*kT*dG*dG*dT*dG*dG*dA*dA*dT*dT*dG*kG*kT*eG; antisense) [compound 548602] | 20
548582 (eT*eA*kG*d[5mC]*dT*d[5mC]*d[5mC]*dA*dT*dG*d[5mC]*dT*dG*kT*kG*eT; antisense) [compound 548582] | 59

same assay, conditions: HepaRG cells, electroporation with 1,000 nM antisense oligonucleotide, approx. 24 hours, PKK mRNA by RT-PCR (RTS3454), relative to untreated control cells; Table 25 experiment

Substance | % inhibition [%]
548205 (eT*e[5mC]*kA*dA*dT*d[5mC]*dT*dG*dA*d[5mC]*dT*dA*dG*kT*kG*eA; antisense) [compound 548205] | 14
548151 (eG*eG*kG*d[5mC]*dT*dT*d[5mC]*dA*dG*d[5mC]*d[5mC]*dA*dG*kA*k[5mC]*eA; antisense) [compound 548151] | 35
548196 (e[5mC]*eA*kA*dT*dA*dT*dT*dG*dA*d[5mC]*dT*dT*dT*kG*kG*eG; antisense) [compound 548196] | 6
548152 (e[5mC]*eG*kG*dG*d[5mC]*dT*dT*d[5mC]*dA*dG*d[5mC]*d[5mC]*dA*kG*kA*e[5mC]; antisense) [compound 548152] | 32
548157 (eA*eT*kT*dG*dT*d[5mC]*dA*dG*d[5mC]*d[5mC]*d[5mC]*d[5mC]*dT*kG*kG*eT; antisense) [compound 548157] | 7
548224 (e[5mC]*e[5mC]*kA*dT*dA*dG*dA*d[5mC]*d[5mC]*d[5mC]*dA*dG*dA*kA*kT*e[5mC]; antisense) [compound 548224] | 20

same assay, conditions: HepaRG cells, electroporation with 1,000 nM antisense oligonucleotide, approx. 24 hours, PKK mRNA by RT-PCR (RTS3454), relative to untreated control cells; Table 26 experiment

Substance | % inhibition [%]
548263 (antisense e[5mC]*eT*k[5mC]*dT*dA*d[5mC]*dA*dT*dA*d[5mC]*dT*d[5mC]*dA*kG*kG*eA) [compound 548263] | 62
548268 (antisense eT*eG*kT*dG*dT*d[5mC]*dT*dA*dG*dG*dG*dA*dG*kT*kT*eG) [compound 548268] | 52
548236 (eT*eA*k[5mC]*dA*dT*d[5mC]*dT*dA*dG*dA*dT*dG*dA*k[5mC]*k[5mC]*eT; antisense) [compound 548236] | 37
548234 (eT*eT*kA*dT*dT*dG*dT*dA*dG*d[5mC]*d[5mC]*dA*dT*kA*k[5mC]*eA; antisense) [compound 548234] | 17
548287 (eG*eT*k[5mC]*dA*dA*dA*dG*dA*dG*dT*dG*dT*d[5mC]*k[5mC]*kA*e[5mC]; antisense) [compound 548287] | 38

same assay, conditions: HepaRG cells, electroporation with 1,000 nM antisense oligonucleotide, approximately 24 hours, primer probe set RTS3454, relative to untreated control cells; experiment of Table 24

Substance | % inhibition [%]
548018 (e[5mC]*e[5mC]*kA*dA*dG*dA*dA*dG*dA*dG*dT*dT*dT*kG*kT*eT; antisense) [compound 548018] | 22
548014 (eT*eG*kT*d[5mC]*d[5mC]*d[5mC]*d[5mC]*dA*dG*dT*dG*dT*dT*kA*k[5mC]*eA; antisense) [compound 548014] | 31
548045 (eT*eT*kA*dT*dA*dG*dT*dT*dT*dT*dG*dG*dT*kG*kA*eA; antisense) [compound 548045] | 0
548060 (e[5mC]*eT*kT*dG*dT*dG*dT*d[5mC]*dA*d[5mC]*d[5mC]*dT*dT*kT*kG*eG; antisense) [compound 548060] | 76

same assay, conditions: PKK mRNA, HepaRG cells, 1,000 nM antisense oligonucleotide; Table 31

Substance | % inhibition [%]
548656 (antisense eT*eT*kA*d[5mC]*dA*dA*d[5mC]*dA*dG*dA*d[5mC]*d[5mC]*d[5mC]*kA*kG*eG) [compound 548656] | 35
548675 (antisense eG*eG*kG*dA*dA*dG*dG*dT*dA*dG*dT*dG*dT*kT*kA*e[5mC]) [compound 548675] | 8
548613 (antisense eT*eG*kG*d[5mC]*dG*dG*dG*dA*dT*d[5mC]*dG*dG*dT*kG*kG*eT) [compound 548613] | 39

same assay, conditions: Table 19; HepaRG cells, electroporation with 1,000 nM antisense oligonucleotide, approximately 24 hours; PKK mRNA by RT-PCR (RTS3454), relative to untreated control cells

Substance | % inhibition [%]
548142 (eA*e[5mC]*kT*d[5mC]*dT*d[5mC]*d[5mC]*dA*dT*dG*d[5mC]*dT*dT*kT*kG*e[5mC]; antisense) [compound 548142] | 44
548118 (antisense eT*e[5mC]*kT*d[5mC]*dA*dT*dG*d[5mC]*dT*dG*dG*dT*dG*kA*k[5mC]*eT) [compound 548118] | 47

same assay, conditions: Table 20; HepaRG cells, electroporation with 1,000 nM antisense oligonucleotide, approximately 24 hours; PKK mRNA by RT-PCR (RTS3454), relative to untreated control cells

Substance | % inhibition [%]
547875 (antisense e[5mC]*eA*k[5mC]*dT*dG*d[5mC]*dT*dA*dA*d[5mC]*d[5mC]*dT*dT*kA*kG*eA) [compound 547875] | 73
547889 (eT*eT*k[5mC]*d[5mC]*dG*dG*dT*dA*d[5mC]*dT*d[5mC]*dT*dG*k[5mC]*k[5mC]*eT; antisense) [compound 547889] | 91
547850 (antisense eA*eA*kA*dT*dG*dT*d[5mC]*dT*d[5mC]*dG*dA*dT*dG*kG*k[5mC]*eA) [compound 547850] | 51
547901 (e[5mC]*eT*kG*dT*dA*d[5mC]*dT*dT*dT*dA*dA*dT*dA*kG*kG*e[5mC]; antisense) [compound 547901] | 77
547903 (e[5mC]*eT*k[5mC]*dA*dG*d[5mC]*dA*d[5mC]*d[5mC]*dT*dT*dT*dA*kT*kA*eG; antisense) [compound 547903] | 62
547898 (e[5mC]*eT*kT*dT*dA*dA*dT*dA*dG*dG*d[5mC]*dA*dA*kT*kT*eG; antisense) [compound 547898] | 0

same assay, conditions: Table 21 experiment; HepaRG cells, electroporation with 1,000 nM antisense oligonucleotide, approx. 24 hours; PKK mRNA by RT-PCR (RTS3454), relative to untreated control cells

Substance | % inhibition [%]
547830 (eG*e[5mC]*kA*d[5mC]*d[5mC]*dT*dG*dT*dT*d[5mC]*dG*dA*dT*kG*kT*eA; antisense) [compound 547830] | 74
547781 (antisense e[5mC]*eA*kA*dT*dT*dG*d[5mC]*dT*dT*d[5mC]*dT*dT*dG*kG*kA*eG) [compound 547781] | 49
547827 (eG*eT*kT*d[5mC]*dG*dA*dT*dG*dT*dA*d[5mC]*dT*dT*kT*kT*eG; antisense) [compound 547827] | 47
547833 (eA*eA*k[5mC]*dT*dG*d[5mC]*dA*d[5mC]*d[5mC]*dT*dG*dT*dT*k[5mC]*kG*eA; antisense) [compound 547833] | 40

same assay, conditions: Table 22 experiment; HepaRG cells, electroporation with 1,000 nM antisense oligonucleotide, approx. 24 hours; PKK mRNA by RT-PCR (RTS3454), relative to untreated control cells

Substance | % inhibition [%]
547875 (antisense e[5mC]*eA*k[5mC]*dT*dG*d[5mC]*dT*dA*dA*d[5mC]*d[5mC]*dT*dT*kA*kG*eA) [compound 547875] | 57
547889 (eT*eT*k[5mC]*d[5mC]*dG*dG*dT*dA*d[5mC]*dT*d[5mC]*dT*dG*k[5mC]*k[5mC]*eT; antisense) [compound 547889] | 97
547850 (antisense eA*eA*kA*dT*dG*dT*d[5mC]*dT*d[5mC]*dG*dA*dT*dG*kG*k[5mC]*eA) [compound 547850] | 80
547901 (e[5mC]*eT*kG*dT*dA*d[5mC]*dT*dT*dT*dA*dA*dT*dA*kG*kG*e[5mC]; antisense) [compound 547901] | 85
547903 (e[5mC]*eT*k[5mC]*dA*dG*d[5mC]*dA*d[5mC]*d[5mC]*dT*dT*dT*dA*kT*kA*eG; antisense) [compound 547903] | 6
547898 (e[5mC]*eT*kT*dT*dA*dA*dT*dA*dG*dG*d[5mC]*dA*dA*kT*kT*eG; antisense) [compound 547898] | 28

same assay, conditions: Table 27; HepaRG cells, 1,000 nM antisense oligonucleotide; human PKK mRNA

Substance | % inhibition [%]
548331 (antisense eA*e[5mC]*kA*dA*dT*d[5mC]*d[5mC]*d[5mC]*dT*dT*dA*dG*d[5mC]*k[5mC]*k[5mC]*eA) [compound 548331] | 73
548307 (eT*eT*k[5mC]*dT*dG*d[5mC]*dA*dA*d[5mC]*dT*dG*dA*dG*k[5mC]*k[5mC]*eT; antisense) [compound 548307] | 6
548316 (e[5mC]*eT*kG*dT*dT*d[5mC]*dA*dG*dG*dT*dA*dG*d[5mC]*kA*k[5mC]*eA; antisense) [compound 548316] | 64
548311 (eT*eG*kA*d[5mC]*d[5mC]*dA*d[5mC]*d[5mC]*dT*d[5mC]*dT*d[5mC]*dG*kG*kG*eT; antisense) [compound 548311] | 10
548308 (eA*eA*kT*dG*dG*d[5mC]*dA*dG*dG*dT*d[5mC]*d[5mC]*dT*kG*kG*e[5mC]; antisense) [compound 548308] | 9

same assay, conditions: Table 28; HepaRG cells, 1,000 nM antisense oligonucleotide; human PKK mRNA

Substance | % inhibition [%]
548474 (eG*eA*kA*dG*dG*dT*dG*dT*dG*d[5mC]*dT*dG*dT*k[5mC]*kG*e[5mC]; antisense) [compound 548474] | 33
548505 (antisense eG*eG*kA*d[5mC]*dA*dA*dT*dG*d[5mC]*d[5mC]*dT*dA*dT*kG*k[5mC]*eT) [compound 548505] | 21
548501 (antisense e[5mC]*eA*kA*dG*d[5mC]*d[5mC]*dA*d[5mC]*dT*dA*dA*d[5mC]*d[5mC]*k[5mC]*kA*e[5mC]) [compound 548501] | 33
548512 (antisense eT*e[5mC]*k[5mC]*dG*d[5mC]*d[5mC]*dT*dT*dT*dG*dG*dA*dT*kA*k[5mC]*eT) [compound 548512] | 49

same assay, conditions: Table 30; human PKK mRNA, HepaRG cells, 1,000 nM antisense oligonucleotide

Substance | % inhibition [%]
548384 (e[5mC]*eT*k[5mC]*dA*d[5mC]*d[5mC]*dG*dG*dT*dA*d[5mC]*dT*d[5mC]*kT*kG*e[5mC]; antisense) [compound 548384] | 49
548412 (antisense eT*eA*kA*d[5mC]*dA*dG*dT*dA*dT*d[5mC]*dA*d[5mC]*dT*kG*kT*eA) [compound 548412] | 17
548450 (e[5mC]*eT*kA*d[5mC]*d[5mC]*dT*dA*dT*dA*dA*d[5mC]*dT*d[5mC]*kT*kA*eA; antisense) [compound 548450] | 0
548426 (antisense eT*eA*kT*dA*dA*d[5mC]*dA*dG*dT*dA*dT*d[5mC]*dA*k[5mC]*kT*eG) [compound 548426] | 14
548432 (antisense eA*e[5mC]*kT*dG*dT*dA*d[5mC]*d[5mC]*dT*dA*dT*dA*dA*k[5mC]*kT*e[5mC]) [compound 548432] | 43

Reference: patent publication US11840686B2, “Modulation of prekallikrein (PKK) expression” (Ionis Pharmaceuticals, Inc., priority 2013, dated 2023)
